Key:
[1] = test system: DNA double strand breaks in the heart; test: Detection of DNA double strand breaks (γ-H2AX staining) in heart sections; format: in vivo, mouse; conditions: acute doxorubicin 25 mg/kg, 16 h
Procedure: After mice were sacrificed, hearts were perfused with ice-cold PBS, quickly removed, embedded in OCT compound (Fisher Scientific), and snap-frozen in liquid nitrogen. The heart was sectioned to 5 μm-thick slices using a cryostat. Heart sections were stored at −80° C. until immunofluorescence staining was performed. Heart sections were rinsed with PBS at room temperature, fixed in BD Cytofix/Cytoperm solution (BD Biosciences) for 15 m, washed in PBS, and permeabilized in BD Perm/Wash solution for 30 m. Heart sections were first blocked with BSA (2 mg/ml) for 30 m, then incubated with an mouse monoclonal anti-γ-H2AX antibody conjugated with Alexa Fluor 555 (Clone N1-431, BD Biosciences) for 1 h. Nuclei were stained with DAPI (Sigma, 1 μg/ml PBS), and the slides were sealed for examination with an Olympus epifluorescence microscope (Model BX51). To quantify DSBs, the numbers of γ-H2AX-positive nuclei and the total nuclei were counted in 5 microscopic fields (400×) per section. For each mouse, five heart sections were counted to determine the percentage of γ-H2AX-positive nuclei.
To further confirm the cardio-protective effect of Dex, DNA double strand breaks were assessed in heart tissues. Dexrazoxane (100 mg/kg) was injected (ip) 8 hrs prior to doxorubicin (25 mg/kg) treatment. Hearts were harvested 16 hr after doxorubicin treatment. The percentage of γH2AX-positive nuclei was counted in 5 fields (400×) in each heart section. Five sections were counted in each heart to determine the average percentage of γH2AX-positive nuclei.

heart sections = test: Detection of apoptosis in heart sections (TUNEL assay); format: in vivo, mouse; conditions: after acute doxorubicin treatment
Procedure: Apoptosis was detected by using TUNEL assay on heart sections. Heart harvest, sectioning, and storage were described above. Heart sections were warmed to room temperature before the apoptotic nuclei were stained by using a commercially available kit (In Situ Cell Death Detection Kit, Cat. No. 12156792910, Roche Applied Science). The entire staining procedures were performed according to the manufacturer's instructions. The nuclei were stained with DAPI (Sigma) before the slides were sealed and examined with an Olympus epifluorescence microscope (Model BX51). The apoptotic nuclei and the total nuclei per heart section were counted at 200× magnification. The apoptotic nuclei in 5 heart sections of each mouse were counted and averaged.
The cardio-protective effect of Dex against doxirubin-induced apoptosis was assessed in heart tissues. Dexrazoxane (100 mg/kg) was injected (ip) 8 hrs prior to doxorubicin (25 mg/kg) injection (ip). One group received only doxorubicin and a second group received only dexrazoxane. Hearts were harvested 16 hrs after doxorubicin treatment. The numbers of TUNEL-positive nuclei were counted in five fields in each heart section.

cardiomyocytes = test: Oxygen consumption rate (Seahorse XF96) of isolated cardiomyocytes; format: in vivo, mouse; conditions: wild type cardiomyocytes, 72 hrs after doxorubicin 25 mg/kg; not in Top2b deleted
Procedure: FIGS. 5a-c: a. Determination of oxygen consumption rate (OCR). Cardiomyocytes were isolated from hearts of Top2b^+/+ and Top2b^Δ/Δ mice 72 hrs after treatment with doxorubicin (25 mg/kg; right bars) or drug vehicle (left bars). The cardiomyocytes were seeded in 96-well plates for oxygen consumption measurement using a Seahorse XF96 instrument. OCR was measured continuously for 90 min in […] from each mouse. The basic OCR was hardly changed during the 90 min measurement, therefore, the OCR at 90 min was compared among the groups. After measurement, the number of cells was counted. Results were normalized as pmoles of oxygen consumed per min per 1,000 cells. Bars represent means±SEM. Asterisk indicates statistically significant difference (p<0.05). b. ROS production in the hearts. Representative images of heart sections stained with Dihydroethidium (DHE), which, after being oxidized, intercalates into DNA and stains the nuclei red. Hearts were harvested 16 hrs after doxorubicin treatment (25 mg/kg) and snap-frozen as described. Heart sections were stained with DHE immediately. […] Quantification of ROS production in FIG. 5b. The numbers of DHE-positive and total nuclei were counted as described and the percentage of DHE-positive nuclei was determined. Quantitative data (mean±SEM) were shown as a bar graph below the images. […]

[2] = test system: PGC-1α and PGC-1β promoters; test: Chromatin immunoprecipitation with Top2b antibody at PGC-1 promoters; format: cell-based, mouse; conditions: HL-1 cells (DOX 2 h) and cardiomyocytes isolated 16 h after 25 mg/kg ip
Procedure: FIGS. 7a-e: a, b. PGC-1 expression in HL-1 cells. […] Expression was measured with RT-qPCR. c, d. CHiP analysis in HL-1 cells. HL-1 cardiomyocytes were treated with (right bars) or without (left bars) DOX ([…]) for 2 hrs and isolated for ChIP using the Top2β antibody. The eluted DNA and Input were PCR amplified to detect specific promoter regions represented in the schematic above the respective ChIP data. In the presence of DOX, the Top2b is readily bound to Region #1 and Region #3 of the PGC-1α promoter (c) and Region #1 and #2 of the PGC-1β promoter (d). e. CHiP study in cardiomyocytes. Cardiomyocytes were isolated from control (n=4) and Dox-treated (n=4) mice and subject to ChIP with the Top2b antibody. The data represent real-time PCR ratios for the fold-enrichment of Top2b at the respective promoters. Top2β binds the Region #1 of the PGC-1α and PGC-1β promoters efficiently following Dox treatment.
HL-1 cells were treated with or without DOX (1 μM) for 2 h and subsequently evaluated using the ChIP protocol as previously published (24-26). For ChIP assay on isolated cardiomyocytes, mice were treated with doxorubicin (25 mg/kg, ip) or drug vehicle. […] For each individual treatment sample, the eluted ChIP product was normalized to the Input product to rule out differences in total DNA quantities between control and Dox-treatment samples. […]

## COc1cccc2c1C(=O)c1c(O)c3c(c(O)c1C2=O)C[C@@](O)(C(=O)CO)C[C@@H]3O[C@H]1C[C@H](N)[C@H](O)[C@H](C)O1 [doxorubicin]
[1]; Top2b+/+ mice
  DSBs in the nuclei (γ-H2AX-positive nuclei): caused DSBs
[1]
  Reduction of doxorubicin-caused DSBs in Top2bΔ/Δ mice versus Top2b+/+ mice: 60%
Heart sections
  Reduction of TUNEL-positive nuclei in hearts of Top2bΔ/Δ mice compared with Top2b+/+ mice: 70%
cardiomyocytes
  Oxygen consumption rate (OCR): significantly reduced
[2]
  Top2b binding to the promoter of the PGC-1α and PGC-1β genes in the presence of doxorubicin (ChIP): binds avidly

From patent US9169509B2, “Topoisomerase 2b as a predictor of susceptibility to anthracycline-induced cardiotoxicity” (Board of Regents, The University of Texas System, priority 2013, dated 2015)
